For one molecule, Activity and Papp results are on record in ChEMBL document CHEMBL5614434, “A Lysosome-Targeting hNEU1 Inhibitor Treats Myocardial Infarction: A Potential Therapeutic Breakthrough” (J Med Chem, 2024).

Activity calls are given as the source filed them. The rule behind the calls is not given here.

For series [1], the system named is Mus musculus. Nature of the series: Cardioprotective activity against isoproterenol-induced myocardial injury in C57/6J mouse model assessed as reduction in cardiac swelling size at 15 mg/kg, ip pretreated with isoproterenol for 3 days followed by compound addition and measured after 3 days (reference value: 5.15 millimeter). The format is functional. The settings on record: time 3 day.

Series [2] has as its system H9c2. Nature of the series: Cytotoxicity against rat H9c2 cells assessed as cell viability at 0.001 to 50 uM under normoxia condition by CCK-8 method. The format is toxicity, cell-based. The conditions noted are these: h9c2, 50 µM, dose 0.001-50 µM. (Formazan colour is commonly taken as a measure of viable cells.)
For series [3], the system named is Mus musculus. Nature of the series: Cardioprotective activity against isoproterenol-induced myocardial injury in C57/6J mouse model assessed as reduction in CK value in serum at 15 mg/kg, ip pretreated with isoproterenol for 3 days followed by compound addition and measured after 3 days by automatic biochemical analysis. The conditions noted are these: time 3.0 day. The format is functional, organism-based.

Series [4] deals with H9c2. Nature of the series: Induction of apoptosis in isoproterenol-induced rat H9c2 cells assessed as early apoptotic cells at 0.1 micromol/L by annexin V-FITC and PI staining based flow cytometry analysis (reference value: 10.37%). The format is toxicity, cell-based. The conditions noted are these: h9c2, 0.1 µM, dose 0.1 µmol/L. (In general: In flow cytometry, cells or beads pass a laser one at a time.)

Series [5] has as its system H9c2. Kind of series: Induction of autophagy in isoproterenol-induced rat H9c2 cells assessed as increase in LC3-I to LC3-II conversion by confocal microscopy based analysis. The format is functional, cell-based.
For series [6], the system named is H9c2. Nature of the series: Induction of autophagy in isoproterenol-induced rat H9c2 cells assessed as downregulation of PARP1 expression by Western blot analysis. Type of series: functional, cell-based. A general note: In western blotting, separated proteins are transferred to a membrane and probed.
In series [7] the test system is H9c2. Kind of series: Induction of apoptosis in isoproterenol-induced rat H9c2 cells assessed as late apoptotic cells at 0.1 micromol/L by annexin V-FITC and PI staining based flow cytometry analysis (reference value: 11.49%). The conditions noted are these: h9c2, 0.1 µM, dose 0.1 µmol/L. Type of series: toxicity, cell-based.
Series [8] concerns Mus musculus. Kind of series: Cardioprotective activity against isoproterenol-induced myocardial injury in C57/6J mouse model assessed as effect on cTNI level in serum at 15 mg/kg, ip pretreated with isoproterenol for 3 days followed by compound addition and measured after 3 days by automatic biochemical analysis. Type of series: functional, organism-based. The settings on record: time 3.0 day.

Series [9] concerns Mus musculus. Nature of the series: Cardioprotective activity against isoproterenol-induced myocardial injury in C57/6J mouse model assessed as suppression of mTORC1 overexpression at 15 mg/kg, ip pretreated with isoproterenol for 3 days followed by compound addition and measured after 3 days by immunohistochemistry analysis. The format is functional, organism-based. The settings on record: time 3.0 day.

A short description of series [10]: Toxicity in isoproterenol-induced male C57/6J mouse model assessed as recovery of growth rate at 15 mg/kg, ip pretreated with isoproterenol for 3 days followed by compound addition and measured after 3 days. The settings on record: in vivo, 72 h, time 3 day. The format is organism-based.
A short description of series [11]: Passive permeability in MDCK cells. The format is ADME, cell-based, Canis lupus familiaris. The settings on record: dog, read-out: permeability.
Series [12] can be described thus: Permeability of compound in MDCK cells. The format is ADME, cell-based, Canis lupus familiaris. The conditions noted are these: dog, read-out: permeability.
Series [13] deals with Mus musculus. Nature of the series: Cardioprotective activity against isoproterenol-induced myocardial injury in C57/6J mouse model assessed as decrease in CK-MB level in serum at 15 mg/kg, ip pretreated with isoproterenol for 3 days followed by compound addition and measured after 3 days by automatic biochemical analysis. The format is functional, organism-based. The conditions noted are these: time 3.0 day.

Series [14] deals with H9c2. Kind of series: Induction of ATP production in isoproterenol-induced rat H9c2 cells at 0.1 micromol/L by fluorescence based analysis. Type of series: functional. The settings on record: dose 0.1 µmol/L.
In series [15] the test system is H9c2. Nature of the series: Inhibition of ROS production in isoproterenol-induced rat H9c2 cells assessed as reduction in DCF value at 0.1 uM by DCFH-DA staining based flow cytometry analysis (reference value: 371.9). Type of series: functional.
For series [16], the system named is Mus musculus. Nature of the series: Cardioprotective activity against isoproterenol-induced myocardial injury in C57/6J mouse model assessed as decrease in heart weight ratio at 15 mg/kg, ip pretreated with isoproterenol for 3 days followed by compound addition and measured after 3 days (reference value: 0.56 %). The settings on record: time 3 day. Set-up: scale not given: the % may be the effect or the level left. The format is functional.

The subject of series [17] is H9c2. Nature of the series: Induction of autophagy in isoproterenol-induced rat H9c2 cells assessed as downregulation of P62 expression by Western blot analysis. The format is functional, cell-based.

For the molecule `CCOC(=O)C1=C[C@@H](OC(CC)CC)[C@H](NC(C)=O)[C@@H](N)C1` [OSELTAMIVIR], the Activity in the series with Mus musculus [1] is reported as 4.65 mm; with H9c2 [2], “Non-Toxic”; with H9c2 [4] it was 2.78%; in the series on H9c2 [7] it was 8.91%; in [10], “Non-Toxic”; in the series with H9c2 [14], 38.3 nmol/mg. For the same molecule, the Activity with H9c2 [15] is given as 309.1; with Mus musculus [16], 0.5%. Besides, the outcome in the series on Mus musculus [3], in the series on H9c2 [6], with Mus musculus [8], in the series on Mus musculus [9], in the series on Mus musculus [13] and in the series on H9c2 [17] was Active. In addition, the result with H9c2 [5] was inactive. Besides, the values for the Papp in series [11] and in series [12] were more than 20 ×10⁻⁶ cm/s and 58 ×10⁻⁶ cm/s, respectively.
